Like-named read-outs stand apart in the source and are kept apart here.
Assays:
[1] = tested on: RLS subjects; conditions: for IRLS QoL Total (Absolute Change) Mean / IRLS QoL Total (Absolute Change) Median / IRLS QoL Total (Percent Change) Mean / IRLS QoL Total (Percent Change) Median / IRLS QoL Total Mean / IRLS QoL Total Median: rasagiline 1 mg/day oral
Procedure: (§1) This was the first clinical study in which rasagiline was administered to RLS subjects. The dosage regimen of 1 mg/day rasagiline was chosen based on the optimal dosage regimen for the symptomatic treatment of PD. […] Therefore, in the event that a subject could not tolerate the 1 mg daily dose of rasagiline, a daily dose of 0.5 mg rasagiline was permitted. Rasagiline was administered orally as a tablet. Both the 1 mg and 0.5 mg rasagiline tablets were beveled round tablets, flat, white to off-white, scored on one side, plain on the other side. Teva Pharmaceutical Industries Ltd. was responsible for the manufacture and primary packaging of study medications according to current Good Manufacturing Practice (cGMP) principles and guidelines applicable to investigational medicinal products.
The Restless Leg Syndrome Quality of Life questionnaire (RLS QoL) assesses the impact of RLS on daily life, emotional well-being, social life and work life. It is an 18-item questionnaire with a total score ranging 0 to 100. […] The lower the score, the greater the impact of RLS on quality of life.
The RLS QoL questionnaire was completed by the investigator at the baseline and Week 4, and 8 visits. The change from baseline to each post-baseline study visit was calculated as an additional efficacy endpoint.

[2] = tested on: RLS subjects; conditions: for CGI-I Total Mean / CGI-I Total Median: scale 1-7, rasagiline 1 mg/day oral
Procedure: as §1
Subjects were scored on this scale at weeks 2, 4, and 8. The mean score at each of these time points was calculated as a secondary efficacy endpoint.

[3] = tested on: old rats with periodic hindlimb movements; conditions: daily treatment; 3 consecutive nights beginning 7 days after onset; vs vehicle-treated rats
Procedure: In a group of old rats 16-20 months, sleep-wake behavior is recorded and hindlimb movements are detected by means of a magneto-inductive device during two 12-h light periods (Baier P. C. et al., Assessment of spontaneously occurring periodic limb movements in sleep in the rat, J. Neurol. Sci. 2002; 198(1-2): 71-77). Periodic hindlimb movements (PHLM) during nonrapid eye movement sleep (NREM) are identified according to modified human criteria in some of the rats, which are then selected for the rasagiline study. Half the rats are treated daily with rasagiline while the other half receive vehicle. Incidence of PHLM is determined for 3 consecutive nights, beginning 7 days after onset of treatment.

[4] = tested on: patients with moderate to severe primary Restless Legs Syndrome; test: Placebo-controlled, double-blind, randomized clinical test in primary RLS (Example 8)
[5] = by eight weeks, remaining subject

## C#CCN[C@@H]1CCc2ccccc21 [rasagiline, R-(+)-N-propargyl-1-aminoindan]
[1]; VISIT WEEK 4, N=2
  IRLS QoL Total (Absolute Change) Mean: 16.67
  IRLS QoL Total (Absolute Change) Median: 16.67
  IRLS QoL Total (Percent Change) Mean: 35.19%
  IRLS QoL Total (Percent Change) Median: 35.19%
  IRLS QoL Total Mean: 62.92
  IRLS QoL Total Median: 62.92
[1]; VISIT WEEK 8, N=1
  IRLS QoL Total (Absolute Change) Mean: 25.00
  IRLS QoL Total (Absolute Change) Median: 25.00
  IRLS QoL Total (Percent Change) Mean: 37.04%
  IRLS QoL Total (Percent Change) Median: 37.04%
  IRLS QoL Total Mean: 92.50
  IRLS QoL Total Median: 92.50
[1]; [5]
  improvement in the IRLS Quality of Life Questionnaire compared to baseline: 37%
[2]; VISIT WEEK 2, N=2
  CGI-I Total Mean: 3.50
  CGI-I Total Median: 3.0
[2]; VISIT WEEK 4, N=2
  CGI-I Total Mean: 3.50
  CGI-I Total Median: 3.50
[2]; VISIT WEEK 8, N=1
  CGI-I Total Mean: 1.00
  CGI-I Total Median: 4.00
[2]; [5]
  RLS symptoms on the CGI-I rating scale: Very Much Improved
[3]
  incidence of periodic hindlimb movements (PHLM): significantly fewer
[4]; 0.5 mg and 1 mg groups, in comparison with the placebo group
  IRLSSG values, change from starting value: significant improvement
[4]; end of treatment, both patient groups
  subjective symptoms (tingling, cramps and pain in the legs, restlessness, difficulties falling or remaining asleep): either disappear or diminish to a tolerable minimum
[4]; patient reports
  hallucinations, somnolence, edema, nausea, vomiting or diarrhea: does not or only to a very minimal extent causes
[4]; patients in a moderate to severe stage of RLS
  clinical improvement: distinct clinical improvement
[4]; patients with moderate to severe RLS
  tolerability and safety: well tolerated and safe

— patent publication US12310929B2, “Use of rasagiline for the treatment of restless legs syndrome” (TEVA PHARMACEUTICAL INDUSTRIES, LTD., priority 2006, dated 2025)
